≈ marks a conversion by molar mass, not a printed value.
Experiments:
[1] = system: Clostridioides difficile ATCC 43255; experiment: MIC determination using broth microdilution method, anaerobic bacteria; type: cell-based; conditions: for MIC: ATCC43255, Clostridioides difficile ATCC 43255, broth microdilution, anaerobic, 37° C., 48 h
Procedure: 0.10 g of sterile cycloserine and 3.20 mg of sterile cefoxitin (filtered by a filter membrane and sterilized) were added to every 200 mL, mixed well, and poured into a sterile petri dish for later use.
S3, culture of Clostridioides difficile strain: 1) the strain stored at −80° C. was resuscitated in an anaerobic glove box with a cycloserine-cefoxitin-fructose agar medium plate, and statically cultured at 37° C. in a constant-temperature incubator for 48 h; • 2) single colonies were picked, and statically cultured in the brain heart infusion broth medium overnight at 37° C. in the constant-temperature incubator; and • 3) the bacterial solution that was statically cultured overnight was transferred into the anaerobic glove box with the brain heart infusion broth medium at a ratio of 1:100, and cultured for 3-4 h until the OD600 was between 0.6 and 0.8; and during this process, 5 g/L of yeast extract solution was added to increase a strain concentration.
(§1) The culture process of the strain was operated in the anaerobic glove box. After the operation was completed, the strain was well sealed with an anaerobic bag or an anaerobic box, taken out and then cultured in the constant-temperature incubator.

[2] = system: Bacteroides fragilis ATCC 25285; experiment: as above; type: cell-based; conditions: ATCC25285; Bacteroides fragilis ATCC 25285; broth microdilution, anaerobic, 37° C., 48 h; read-out: MIC
Procedure: as §1

[3] = system: Porphyromonas gingivalis ATCC 33277; experiment: as above; type: cell-based; conditions: ATCC33277; Porphyromonas gingivalis ATCC 33277; broth microdilution, anaerobic, 37° C., 48 h; read-out: MIC
Procedure: S5, Culture of Porphyromonas gingivalis strain: • the strain stored at −80° C. was resuscitated in the anaerobic glove box with a Colombian blood agar plate, and statically cultured at 37° C. in the constant-temperature incubator for 5-7 days.
as §1

[4] = system: H. pylori NCTC 11637; experiment: MIC determination using broth microdilution method, Helicobacter pylori; type: cell-based; conditions: Helicobacter pylori, NCTC11637; H. pylori NCTC 11637(R), metronidazole-resistant strain; read-out: MIC
Procedure: (§2) • 1) A frozen solution stored at −80° C. was taken out, and thawed at room temperature; 100 μL of bacterial solution was taken with a pipette, coated onto a Columbia blood agar plate (finished-product medium), put invertedly in a […] culture box, placed in a micro-aerobic gas production bag to achieve a micro-aerobic environment, and cultured at 37° C. for 2-3 days. • 2) A sterile inoculation ring was used to pick Helicobacter pylori single colonies (transparent water droplets) grown on the Colombian blood agar medium and inoculated in the above liquid medium; and cultured at 37° C. in a micro-aerobic environment for 3 days. • 3) A required concentration (absorbance) for the experiment was reached after culture, and the bacterial solution was taken for subsequent experiments.
(§3) The drug concentration at which bacteria ceased to grow or grew at the most significant reduction level was referred to as the MIC value.

[5] = system: H. pylori ATCC 43504; experiment: as above; type: cell-based; conditions: Helicobacter pylori, ATCC43504; H. pylori ATCC 43504(R), metronidazole-resistant strain; read-out: MIC
Procedure: as §2, §3

[6] = system: H. pylori ATCC 26695; experiment: as above; type: cell-based; conditions: ATCC26695, H. pylori ATCC 26695(S), metronidazole-susceptible strain, read-out: MIC
Procedure: as §2, §3

[7] = system: H. pylori Sydney strain SS1; experiment: as above; type: cell-based; conditions: H. pylori Sydney strain SS1, read-out: MIC
Procedure: as §2, §3

[8] = system: Clostridioides difficile infection (spores, 027 Type); experiment: Clostridioides difficile infection (CDI) mouse model; type: in vivo, C57BL/6 mice; conditions: for number of surviving mice: 10 animals per group
Description: • 1) Experimental animals: C57BL/6, 4-6 weeks old, female.
In order to evaluate the efficacy of the compounds of the present application on Clostridioides difficile infection, an animal model of Clostridioides difficile infection was established, as shown in FIG. 1. […] On Day 0, the mice were administrated with 10^5 CFU/mL of spores by gavage; and on Days 1 and 2, the mice were administrated with 10^6 CFU/mL of spores by gavage. Starting from Day 3, the mice were given 7 days of drug treatment, and all mice were euthanized at the end of the experiment, except for the death of mice during the treatment.
Two of the conjugates, SCUT1-2 and SCUT1-6, with the optional in-vitro inhibitory activities were selected. […] The therapeutic effect of the conjugate of the present application in the treatment of Clostridioides difficile infection was evaluated.

[9] = Day 3 (before the administration), 50 mg/kg groups

## C[C@H](CCC(=O)O)[C@H]1CC[C@H]2[C@@H]3[C@H](O)[C@H](O)[C@@H]4C[C@H](O)CC[C@]4(C)[C@H]3CC[C@]12C [HCA, hyocholic acid, reference compound]
[1]
  MIC: 32 µg/mL (≈ 78.3 µM)
[2]
  MIC: > 32 µg/mL
[3]
  MIC: > 32 µg/mL

## C[C@H](CCC(=O)O)[C@H]1CC[C@H]2[C@@H]3[C@H](O)C[C@@H]4C[C@H](O)CC[C@]4(C)[C@H]3CC[C@]12C [CDCA, chenodeoxycholic acid, reference compound]
[1]
  MIC: 8 µg/mL (≈ 20.4 µM)
[2]
  MIC: > 32 µg/mL
[3]
  MIC: > 32 µg/mL

## Cc1ncc([N+](=O)[O-])n1CCOC(=O)CC[C@@H](C)[C@H]1CC[C@H]2[C@@H]3C[C@H](O)[C@@H]4C[C@H](O)CC[C@]4(C)[C@H]3CC[C@]12C [SCUT1-5]
[1]
  MIC: 0.25 µg/mL (≈ 0.458 µM)
[2]
  MIC: 2 µg/mL (≈ 3.66 µM)
[3]
  MIC: 2 µg/mL (≈ 3.66 µM)
[4]
  MIC: 32 µg/mL (≈ 58.6 µM)
[5]
  MIC: 4 µg/mL (≈ 7.33 µM)
[6]
  MIC: 8 µg/mL (≈ 14.7 µM)
[7]
  MIC: 16 µg/mL (≈ 29.3 µM)

## Cc1ncc([N+](=O)[O-])n1CCOC(=O)CC[C@@H](C)[C@H]1CC[C@H]2[C@@H]3[C@H](O)[C@H](O)[C@@H]4C[C@H](O)CC[C@]4(C)[C@H]3CC[C@]12C [SCUT1-6]
[8]; [9]
  number of mice with diarrhea: 8 number of mice
  number of surviving mice: 10 number of mice
[8]; Day 4, 50 mg/kg
  number of mice with diarrhea: 10 (10) number of mice
  number of surviving mice: 10 (10) number of mice
[8]; Day 5, 50 mg/kg
  number of mice with diarrhea: 8 number of mice
  number of surviving mice: 10 number of mice
[8]; Day 6, 50 mg/kg
  number of mice with diarrhea: 7 number of mice
  number of surviving mice: 10 number of mice
[8]; Day 7, 50 mg/kg
  number of mice with diarrhea: 5 number of mice
  number of surviving mice: 10 number of mice
[8]; Day 8, 50 mg/kg
  number of mice with diarrhea: 6 number of mice
  number of surviving mice: 10 number of mice
[8]; Day 9, 50 mg/kg
  number of mice with diarrhea: 5 number of mice
  number of surviving mice: 10 number of mice
[8]; during drug treatment from Day 3, 50 mg/kg
  changes in mouse body weights: continued to decrease until the third day of drug treatment (Day 5)
[1]
  MIC: 0.06 µg/mL (≈ 0.107 µM)
[1]; at the same dosage, versus metronidazole
  promotion of inhibitory activity against Clostridioides difficile relative to metronidazole: more than 50 times
[1]; comment on Table 1
  inhibitory effect on Clostridioides difficile (ATCC 43255), in words: particularly prominent
[2]
  MIC: 2 µg/mL (≈ 3.56 µM)
[3]
  MIC: 0.25 µg/mL (≈ 0.445 µM)
[4]
  MIC: 8 µg/mL (≈ 14.2 µM)
[5]
  MIC: 8 µg/mL (≈ 14.2 µM)
[6]
  MIC: 4 µg/mL (≈ 7.12 µM)
[7]
  MIC: 16 µg/mL (≈ 28.5 µM)

## Cc1ncc([N+](=O)[O-])n1CCOC(=O)CC[C@@H](C)[C@H]1CC[C@H]2[C@@H]3C(=O)C[C@@H]4C[C@H](O)CC[C@]4(C)[C@H]3C[C@H](O)[C@]12C [SCUT1-8]
[1]
  MIC: 1 µg/mL (≈ 1.79 µM)
[2]
  MIC: 1 µg/mL (≈ 1.79 µM)
[3]
  MIC: 1 µg/mL (≈ 1.79 µM)
[4]
  MIC: 64 µg/mL (≈ 114 µM)
[5]
  MIC: 16 µg/mL (≈ 28.6 µM)
[6]
  MIC: 8 µg/mL (≈ 14.3 µM)
[7]
  MIC: 8 µg/mL (≈ 14.3 µM)

Reference: patent US20260199482A1, “BILE ACID-METRONIDAZOLE CONJUGATE AND USE THEREOF” (SOUTH CHINA UNIVERSITY OF TECHNOLOGY, priority 2022, published 2026)
